2 molecules from paper PMC6017115, “Inhibitory Effect of Sauchinone on UDP-Glucuronosyltransferase (UGT) 2B7 Activity” (Molecules : A Journal of Synthetic Chemistry and Natural …, 2018) can be followed below.

Structures are written as SMILES.

In one test the target is T1, UGT1A6 (Homo sapiens, UniProt P19224).
T1 construct: tissue Corning Life Sciences 452156; host or cells: pooled human liver microsomes
T1 sequence (P19224 27-532): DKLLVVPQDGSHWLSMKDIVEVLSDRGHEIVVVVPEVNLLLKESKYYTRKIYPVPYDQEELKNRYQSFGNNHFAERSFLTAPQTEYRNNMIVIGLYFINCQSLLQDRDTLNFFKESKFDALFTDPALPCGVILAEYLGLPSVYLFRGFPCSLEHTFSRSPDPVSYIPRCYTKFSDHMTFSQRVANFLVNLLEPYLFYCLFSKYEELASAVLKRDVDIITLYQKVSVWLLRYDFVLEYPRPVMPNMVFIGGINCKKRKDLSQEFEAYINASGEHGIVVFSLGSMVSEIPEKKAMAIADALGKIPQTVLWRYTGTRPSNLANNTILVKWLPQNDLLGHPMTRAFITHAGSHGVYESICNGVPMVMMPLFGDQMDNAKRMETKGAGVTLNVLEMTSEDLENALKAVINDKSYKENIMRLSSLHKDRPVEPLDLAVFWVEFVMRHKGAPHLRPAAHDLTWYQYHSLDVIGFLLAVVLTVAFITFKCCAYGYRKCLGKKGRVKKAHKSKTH
Briefly: Inhibition of UGT1A6 (serotonin glucuronidation) in human liver microsomes. The format is in vitro ADME. The protocol: (§1) Their IC50 values were compared to that of sauchinone. […] UGT-mediated activities in the presence of sauchinone as an inhibitor were expressed as percentages of corresponding control values (in absence of sauchinone). From percentages of control activity versus inhibitor concentrations, a sigmoid shaped curve was fitted to the data and IC50 as an enzyme inhibition parameter was calculated by fitting the Hill equation to the data using GraphPad Prism 5 (GraphPad Software Inc., San Diego, CA, USA).
A general note: Microsomes from liver hold many membrane-bound enzymes, among them those of drug oxidation.

A further test deals with T2, UGT2B7 (Homo sapiens, UniProt P16662).
T2 sequence (P16662 24-529): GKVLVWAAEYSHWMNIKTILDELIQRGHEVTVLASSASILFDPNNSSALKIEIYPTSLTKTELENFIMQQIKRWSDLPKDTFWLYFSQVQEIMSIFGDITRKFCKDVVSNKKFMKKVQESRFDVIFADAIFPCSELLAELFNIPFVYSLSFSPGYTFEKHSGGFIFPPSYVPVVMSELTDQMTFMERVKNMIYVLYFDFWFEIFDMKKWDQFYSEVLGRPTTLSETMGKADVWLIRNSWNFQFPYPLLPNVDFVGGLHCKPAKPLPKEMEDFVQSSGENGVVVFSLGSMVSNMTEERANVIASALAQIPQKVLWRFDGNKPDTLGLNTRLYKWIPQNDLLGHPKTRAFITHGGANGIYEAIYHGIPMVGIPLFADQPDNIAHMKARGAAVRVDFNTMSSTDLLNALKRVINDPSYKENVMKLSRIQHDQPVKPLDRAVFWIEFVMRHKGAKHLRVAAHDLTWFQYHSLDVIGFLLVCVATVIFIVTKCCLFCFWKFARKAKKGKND
The test can be described thus: Inhibition of UGT2B7 (zidovudine glucuronidation) in human liver microsomes. It counts as in vitro ADME. Also on record: tissue Corning Life Sciences 452156; host or cells: pooled human liver microsomes. How it is done:
as §1

As a reminder, the IC50 is the point on the concentration scale where inhibition reaches its midpoint. Take `Oc1cccc2ccccc12` [1-Naphthol]: it took 35.2 µM to reach half-maximal inhibition against UGT1A6 (IC50).

At UGT2B7, `O=C1Nc2ccc(Cl)cc2[C@@](C#CC2CC2)(C(F)(F)F)O1` [Efavirenz] displayed an IC50 of 75.4 µM.
